Patent US7659245B2, “Macrocylic inhibitors of hepatitis C virus” (Tibotec Pharmaceuticals Ltd, priority 2005, dated 2010)

Key:
[1] = system: HCV replicons (Huh-7 luc/neo cells, NS3-NS5B regions of HCV type 1b); assay: Replicon assay: inhibition of HCV RNA replication in Huh-Luc cells (luciferase read-out); format: cell-based; conditions: Hepatitis C virus, Huh-7, 72 h, HCV type 1b replicon, luciferase activity after three days
Experimental: The in vitro antiviral activity against HCV of the compounds of formula (I) was tested in a cellular HCV replicon system based on Lohmann et al. (1999) Science 285:110-113, with the further modifications described by Krieger et al. (2001) Journal of Virology 75: 4614-4624 (incorporated herein by reference), which is further exemplified in the examples section. This model, while not a complete infection model for HCV, is widely accepted as the most robust and efficient model of autonomous HCV RNA replication currently available. […] It will be appreciated that it is important to distinguish between compounds that specifically interfere with HCV functions from those that exert cytotoxic or cytostatic effects in the HCV replicon model, and as a consequence cause a decrease in HCV RNA or linked reporter enzyme concentration. Assays are known in the field for the evaluation of cellular cytotoxicity based for example on the activity of mitochondrial enzymes using fluorogenic redox dyes such as resazurin. Furthermore, cellular counter screens exist for the evaluation of non-selective inhibition of linked reporter gene activity, such as firefly luciferase. Appropriate cell types can be equipped by stable transfection with a luciferase reporter gene whose expression is dependent on a constitutively active gene promoter, and such cells can be used as a counter-screen to eliminate non-selective inhibitors.
The compounds of formula (I) were examined for activity in the inhibition of HCV RNA replication in a cellular assay. […] The cellular assay was based on a bicistronic expression construct, as described by Lohmann et al. (1999) Science vol. 285 pp. 110-113 with modifications described by Krieger et al. (2001) Journal of Virology 75: 4614-4624, in a multi-target screening strategy. In essence, the method was as follows.
The assay utilized the stably transfected cell line Huh-7 luc/neo (hereafter referred to as Huh-Luc). This cell line harbors an RNA encoding a bicistronic expression construct comprising the wild type NS3-NS5B regions of HCV type 1b translated from an Internal Ribosome Entry Site (IRES) from encephalomyocarditis virus (EMCV), preceded by a reporter portion (FfL-luciferase), and a selectable marker portion (neo^R, neomycine phosphotransferase). The construct is bordered by 5′ and 3′ NTRs (non-translated regions) from HCV type 1b. Continued culture of the replicon cells in the presence of G418 (neo^R) is dependent on the replication of the HCV RNA. The stably transfected replicon cells that express HCV RNA, which replicates autonomously and to high levels, encoding inter alia luciferase, are used for screening the antiviral compounds.
The replicon cells were plated in 384 well plates in the presence of the test and control compounds which were added in various concentrations. Following an incubation of three days, HCV replication was measured by assaying luciferase activity (using standard luciferase assay substrates and reagents and a Perkin Elmer ViewLux™ ultraHTS microplate imager). Replicon cells in the control cultures have high luciferase expression in the absence of any inhibitor. The inhibitory activity of the compound on luciferase activity was monitored on the Huh-Luc cells, enabling a dose-response curve for each test compound. EC50 values were then calculated, which value represents the amount of the compound required to decrease by 50% the level of detected luciferase activity, or more specifically, the ability of the genetically linked HCV replicon RNA to replicate.

[2] = molecular target: full-length hepatitis C NS3 protease enzyme (HCV NS3/4A protease complexes) (Hepatitis C virus genotype 1a, UniProt P27958); assay: Inhibition assay (enzymatic assay) of HCV NS3/4A protease; format: biochemical; conditions: enzyme 1 nM, 25 μM NS4A cofactor, 0.5 μM depsipeptide substrate, 30° C., competitive model
Chain of full-length hepatitis C NS3 protease enzyme (HCV NS3/4A protease complexes) (P27958 1027-1657, one chain of several): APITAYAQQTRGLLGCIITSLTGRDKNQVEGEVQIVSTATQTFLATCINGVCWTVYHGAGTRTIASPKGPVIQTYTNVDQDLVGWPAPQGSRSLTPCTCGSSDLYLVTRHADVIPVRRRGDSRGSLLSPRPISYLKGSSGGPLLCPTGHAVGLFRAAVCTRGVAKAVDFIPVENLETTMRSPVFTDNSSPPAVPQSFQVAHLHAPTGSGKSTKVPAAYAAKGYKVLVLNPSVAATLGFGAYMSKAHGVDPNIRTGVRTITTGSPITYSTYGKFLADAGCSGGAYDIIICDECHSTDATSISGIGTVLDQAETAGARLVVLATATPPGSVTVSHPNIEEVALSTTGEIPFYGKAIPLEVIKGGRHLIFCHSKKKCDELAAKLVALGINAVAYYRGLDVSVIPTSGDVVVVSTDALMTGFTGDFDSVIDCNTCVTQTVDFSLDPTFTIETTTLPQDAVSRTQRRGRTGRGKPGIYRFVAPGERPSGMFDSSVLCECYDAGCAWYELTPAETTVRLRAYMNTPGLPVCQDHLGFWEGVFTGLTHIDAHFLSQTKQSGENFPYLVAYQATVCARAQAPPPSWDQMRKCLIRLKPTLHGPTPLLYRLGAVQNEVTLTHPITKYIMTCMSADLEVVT
Experimental: The aim of this in vitro assay is to measure the inhibition of HCV NS3/4A protease complexes by the compounds of the present invention. This assay provides an indication of how effective compounds of the present invention would be in inhibiting HCV NS3/4A proteolytic activity.
The inhibition of full-length hepatitis C NS3 protease enzyme was measured essentially as described in Poliakov, 2002 Prot Expression & Purification 25 363 371. Briefly, the hydrolysis of a depsipeptide substrate, Ac-DED(Edans)EEAbuψ[COO]ASK(Dabcyl)-NH2 (AnaSpec, San José, USA), was measured spectrofluorometrically in the presence of a peptide cofactor, KKGSVVIVGRIVLSGK (Åke Engström, Department of Medical Biochemistry and Microbiology, Uppsala University, Sweden). [Landro, 1997 #Biochem 36 9340-9348]. The enzyme (1 nM) was incubated in 50 mM HEPES, pH 7.5, 10 mM DTT, 40% glycerol, 0.1% n-octyl-D-glucoside, with 25 μM NS4A cofactor and inhibitor at 30° C. for 10 min, whereupon the reaction was initiated by addition of 0.5 μM substrate. Inhibitors were dissolved in DMSO, sonicated for 30 sec. and vortexed. The solutions were stored at −20° C. between measurements.
The final concentration of DMSO in the assay sample was adjusted to 3.3%. The rate of hydrolysis was corrected for inner filter effects according to published procedures. [Liu, 1999 Analytical Biochemistry 267 331-335]. Ki values were estimated by non-linear regression analysis (GraFit, Erithacus Software, Staines, MX, UK), using a model for competitive inhibition and a fixed value for Km (0.15 μM). A minimum of two replicates was performed for all measurements.

| Compound | EC50 [1] | Ki [2] |
| --- | --- | --- |
| CN1CCCC/C=C\[C@@H]2C[C@@]2(C(=O)NS(=O)(=O)C2CC2)NC(=O)[C@@H]2C[C@@H](Oc3nc(N4CCCC4)nc4ccccc34)C[C@H]2C1=O [Compound 72, Cyclopropanesulfonic acid [13-methyl-2,14-dioxo-17-[2-pyrrolidin-1-yl)-quinazolin-4-yloxy]-3,13-diaza-tricyclo[13.3.0.0*4,6*]octadec-7-ene-4-carbonyl]-amide] | 200 to 990 nM | 0.1 to 4.9 nM |
| COc1ccc2c(O[C@@H]3C[C@H]4C(=O)N[C@]5(C(=O)NS(=O)(=O)C6CC6)C[C@H]5/C=C\CCCCN(C)C(=O)N4C3)nc(-c3ccncc3)nc2c1C [Compound 179, Cyclopropanesulfonic acid [17-(7-methoxy-8-methyl-2-pyridin-4-yl-quinazolin-4-yloxy)-13-methyl-2,14-dioxo-3,13,15-triaza-tricyclo[13.3.0.0*4,6*]octadec-7-ene-4-carbonyl]-amide] | 0.5 to 199 nM | 0.1 to 4.9 nM |
| COc1ccc2c(O[C@@H]3C[C@H]4C(=O)N[C@]5(C(=O)NS(=O)(=O)C6CC6)C[C@H]5/C=C\CCCCN(C)C(=O)[C@@H]4C3)nc(-c3ccccc3)nc2c1C [Compound 89, Cyclopropanesulfonic acid [17-(7-methoxy-8-methyl-2-phenyl-quinazolin-4-yloxy)-13-methyl-2,14-dioxo-3,13-diaza-tricyclo[13.3.0.0*4,6*]octadec-7-ene-4-carbnyl]-amide] | 0.5 to 199 nM | 0.1 to 4.9 nM |
| COc1ccc2c(O[C@@H]3C[C@H]4C(=O)N[C@]5(C(=O)NS(=O)(=O)C6CC6)C[C@H]5/C=C\CCCCN(C)C(=O)N4C3)nc(-c3cccc(F)c3)nc2c1C [Compound 165, Cyclopropanesulfonic acid {17-[2-(3-fluoro-phenyl)-7-methoxy-8-methyl-quinazolin-4-yloxy]-13-methyl-2,14-dioxo-3,13,15-triaza-tricyclo[13.3.0.0*4,6*]octadec-7-ene-4-carbonyl}-amide] | 0.5 to 199 nM | 0.1 to 4.9 nM |
| CCOc1nc(O[C@@H]2C[C@H]3C(=O)N[C@]4(C(=O)NS(=O)(=O)C5CC5)C[C@H]4/C=C\CCCCN(C)C(=O)[C@@H]3C2)c2ccc(OC)c(C)c2n1 [Compound 150, N-[17-[2-Ethoxy-7-methoxy-8-methylquinazolin-4-yloxy]-13-methyl-2,14-dioxo-3,13-diazatricyclo[13.3.0.0^4,6]octadec-7-ene-4-carbonyl](cyclopropyl)sulfonamide] | 0.5 to 199 nM | 0.1 to 4.9 nM |
| COc1ccc2c(O[C@@H]3C[C@H]4C(=O)N[C@]5(C(=O)NS(=O)(=O)C6CC6)C[C@H]5/C=C\CCCCN(C)C(=O)[C@@H]4C3)nc(-c3ccccc3)nc2c1 [Compound 21, Cyclopropanesulfonic acid [17-(7-methoxy-2-phenyl-quinazolin-4-yloxy)-13-methyl-2,14-dioxo-3,13-diaza-tricyclo[13.3.0.0*4,6*]octadec-7-ene-4-carbonyl]-amide] | 0.5 to 199 nM | 0.1 to 4.9 nM |
| CC(C)c1csc(-c2nc(O[C@@H]3C[C@H]4C(=O)N[C@]5(C(=O)NS(=O)(=O)C6CC6)C[C@H]5/C=C\CCCCN(C)C(=O)[C@@H]4C3)c3ccccc3n2)n1 [Compound 44, Cyclopropanesulfonic acid {17-[2-(4-isopropyl-thiazol-2-yl)-quinazolin-4-yloxy-]-13-methyl-2,14-dioxo-3,13-diaza-tricyclo[13.3.0.0*4,6*]octadec-7-ene-4-carbonyl}-amide] | 0.5 to 199 nM | 0.1 to 4.9 nM |
| COc1cc2nc(-c3ccccc3)nc(O[C@@H]3C[C@H]4C(=O)N[C@]5(C(=O)NS(=O)(=O)C6CC6)C[C@H]5/C=C\CCCCN(C)C(=O)N4C3)c2cc1C [Compound 121, Cyclopropanesulfonic acid [17-(7-methoxy-6-methyl-2-phenyl-quinazolin-4-yloxy)-13-methyl-2,14-dioxo-3,13,15-triaza-tricyclo[13.3.0.0*4,6*]octadec-7-ene-4-carbonyl]-amide] | 0.5 to 199 nM | 0.1 to 4.9 nM |
| COc1ccc2c(O[C@@H]3C[C@H]4C(=O)N[C@]5(C(=O)NS(=O)(=O)C6CC6)C[C@H]5/C=C\CCCCN(C)C(=O)[C@@H]4C3)nc(-c3cccc(F)c3)nc2c1C [Compound 160, Cyclopropanesulfonic acid {17-[2-(3-fluoro-phenyl)-7-methoxy-8-methyl-quinazolin-4-yloxy]-13-methyl-2,14-dioxo-3,13-diaza-tricyclo[13.3.0.0*4,6*]octadec-7-ene-4-carbonyl}-amide] | 0.5 to 199 nM | 0.1 to 4.9 nM |
| COc1ccc2c(O[C@@H]3C[C@H]4C(=O)N[C@]5(C(=O)NS(=O)(=O)C6CC6)C[C@H]5/C=C\CCCCCNC(=O)N4C3)nc(-c3ccccc3)nc2c1C [Compound 174, Cyclopropanesulfonic acid [18-(7-methoxy-8-methyl-2-phenyl-quinazolin-4-yloxy)-2,15-dioxo-3,14,16-triaza-tricyclo[14.3.0.0*4,6*]nonadec-7-ene-4-carbonyl]-amide] | 0.5 to 199 nM | 0.1 to 4.9 nM |
| COc1ccc2c(O[C@@H]3C[C@H]4C(=O)N[C@]5(C(=O)NS(=O)(=O)C6(C)CC6)C[C@H]5/C=C\CCCCN(C)C(=O)[C@@H]4C3)nc(-c3cccc(F)c3)nc2c1C [Compound 161, 1-Methyl-cyclopropanesulfonic acid {17-[2-(3-fluoro-phenyl)-7-methoxy-8-methyl-quinazolin-4-yloxy]-13-methyl-2,14-dioxo-3,13-diazatricyclo[13.3.0.0*4,6*]octadec-7-ene-4-carbonyl}-amide] | 0.5 to 199 nM | 0.1 to 4.9 nM |
| CN1CCCC/C=C\[C@@H]2C[C@@]2(C(=O)NS(=O)(=O)C2CC2)NC(=O)[C@@H]2C[C@@H](Oc3nc(-c4ccccc4)nc4ccccc34)C[C@H]2C1=O [Compound 31, Cyclopropanesulfonic acid [13-methyl-2,14-dioxo-17-(2-phenylquinazolin-4-yl-oxy)3,13-diaza-tricyclo[13.3.0.0*4,6*]octadec-7-ene-4-carbonyl]amide] | 0.5 to 199 nM | 0.1 to 4.9 nM |
| COc1ccc2c(O[C@@H]3C[C@H]4C(=O)N[C@]5(C(=O)NS(=O)(=O)C6CC6)C[C@H]5/C=C\CCCCN(C)C(=O)[C@@H]4C3)nc(-n3ccc(C(C)C)n3)nc2c1C [Compound 147, N-[17-[2-(3-isopropylpyrazol-1-yl)-7-methoxy-8-methylquinazolin-4-yloxy]-13-methyl-2,14-dioxo-3,13-diazatricyclo[13.3.0.0^4,6]octadec-7-ene-4-carbonyl](cyclo-propyl)sulfonamide] | 0.5 to 199 nM | 0.1 to 4.9 nM |
